Here are results for 25 compounds from US20190091281A1, “DELIVERY PHARMACEUTICAL COMPOSITIONS INCLUDING PERMEATION ENHANCERS” (AQUESTIVE THERAPEUTICS, INC., priority 2017, published 2019).

Several values for one entry are separate records, joined by “and”; a condition that tells them apart may be missing. Identical values can stand only once. Like-named read-outs stand apart in the source and are kept apart here.

A word on the share remaining: it is what is left of the initial amount, in per cent. Usually AUC stands for the area under the concentration-time curve, a measure of exposure. Higher therefore signals more exposure. The Cmax is the highest concentration seen after dosing. The Tmax is the time at which the peak concentration occurs. For orientation: bioavailability means the share of a dose that reaches the circulation, judged against a reference dose that is usually intravenous.

One data set has as its system frozen buccal tissue. The data set is described as follows: Ex vivo permeation model of octreotide with permeation enhancers (Franz diffusion cell). From the text:
The Franz diffusion cell apparatus consists of two chambers separated by a membrane of, for example, animal or human skin. The test product is applied to the membrane via the top chamber. The bottom chamber contains fluid from which samples are taken at regular intervals for analysis to determine the amount of active that has permeated the membrane at set time points.
Applicants performed an ex vivo screening of permeation enhancers of octreotide delivery. Ex vivo porcine tissue was used, with a tissue thickness 300 um, 3 mg of octreotide and a time of up to 6 hours.

The nature of data set [1]: Octreotide compatibility of permeation enhancers (solubility without precipitation).
Data set [2] in a line: Octreotide degradation on buccal tissue with microneedle application. It is filed as in vitro ADME. The conditions noted are these: 4 hours at 37 degrees C. On the procedure:
As shown in the Table below, the buccal tissue was subjected to microneedle application (10 times) and incubated with octreotide solution (2 ml, 1 mg/ml) for 4 hours at 37 degrees C.

In a further data set the test system is buccal tissue. The data set is described as follows: HIFU as physical permeation enhancer, ex vivo permeation through full thickness tissue. It is filed as in vitro ADME. The conditions noted are these: HIFU 30 seconds (180 watts, duty cycle 5%, PRF 10 Hz), two hours. The text has this: In one example, the inventors used High Intensity Focused Ultrasound (HIFU) as physical permeation enhancer. HIFU can have mechanical, cavitational or thermal effects on the tissue depending on the Ultrasound parameters such as intensity, duty cycle, pulse repetition frequency and the exposure time. In this experiment, the buccal tissue was subjected to HIFU for 30 seconds (power of 180 watts, duty cycle 5%, PRF of 10 Hz) octreotide permeation through the tissue was monitored for two hours in the ex vivo permeation model described earlier (except using full thickness tissue which includes connective tissue of the sub-mucosa).

Data set [3] in a line: POC study in mini pigs, octreotide solution on buccal/sublingual mucosa after microneedles. The conditions noted are these: pig, blood, iv, 100 ug, 100 μg I.V. It is filed as in vivo.
Assay in data set [4]: as above
It is filed as in vivo. The conditions noted are these: pig, blood; for AUC / Cmax / bioavailability: 12 mg. From the text:
Solutions were placed after scraping off mucin using a spatula and then treating the area with microneedles (750 um for buccal and 500 um for sublingual). Methocel (40% in water was used as a glue to attach the holder keeping the solution on to the tissue. The test material was colored so that any loss of drug during the experimental set up could be easily monitored.

Where [5] appears, read: octreotide flux, enhancer 10 Wt %, frozen buccal tissue 300 um.
Setting [6] is: octreotide permeation, 10% w/w, Octreotide soluble after vigorous stirring.
[7] abbreviates: 10% w/w, Octreotide soluble after vigorous stirring.
[8] abbreviates: 12 mg solution with 5 wt % DDTMAB applied to disrupted buccal mucosa.
[9] abbreviates: 12 mg with 5 wt % DDTMAB applied to disrupted sublingual mucosa.

With `CN1CCCC1=O` [1-Methyl 2-Pyrrolidone], the Average flux in the data set with frozen buccal tissue (pig, 5 Wt %) is 0.08 ug/cm2*min.
Consider `O=CC=Cc1ccccc1` [Cinnamaldehyde], for which the Average flux is reported as 0.00 ug/cm2*min with frozen buccal tissue (pig, 1 Wt %) and 0.00 ug/cm2*min with frozen buccal tissue (pig, 3 Wt %).
In the case of `CO[C@H]1CO[C@H]2[C@@H]1OC[C@H]2OC` [Dimethyl isosorbide], the Average flux with frozen buccal tissue (octreotide flux, enhancer 5 Wt %, frozen buccal tissue 300 um) is given as 0.07 ug/cm2*min.
Regarding `CCCCCCCCCCCC[N+](C)(C)C.[Br-]` [Dodecyltrimethylammonium bromide], in the data set on frozen buccal tissue (aliphatic trimethyl-ammonium bromide surfactants at 1 wt % (FIG. 5)), the permeation activity result is reported as “most active”. Besides, in data set [1], the “Octreotide Compatibility” value was “Yes” and the “compatibility with octreotide in terms of solubility without causing precipitation” value was “improved compatibility”.
Turning to `O=C(O)CN(CCN(CC(=O)O)CC(=O)O)CC(=O)O` [EDTA], the “Permeation Ranking 0-1-2-3 None-Low-Med-High” value in the data set with frozen buccal tissue (pig) is reported as 1. In addition, in the data set with frozen buccal tissue (pig, 10 Wt %), the Average flux stood at 0.10 ug/cm2*min.
`O=C(O)CN(CCOCCOCCN(CC(=O)O)CC(=O)O)CC(=O)O` [EGTA]: the “Permeation Ranking 0-1-2-3 None-Low-Med-High” value in the data set on frozen buccal tissue was 0.
On to `C[C@H](CCC(=O)NCC(=O)[O-])[C@H]1CC[C@H]2[C@@H]3CC[C@@H]4C[C@H](O)CC[C@]4(C)[C@H]3C[C@H](O)[C@]12C.[Na+]` [GDC, Sodium glycodeoxycholate], for which the Average flux with frozen buccal tissue (octreotide flux, enhancer 0.1 Wt %, frozen buccal tissue 300 um) was found to be 0.14 ug/cm2*min; in the data set with frozen buccal tissue (setting [5]), 0.85 ug/cm2*min. The “Permeation Ranking 0-1-2-3 None-Low-Med-High” value in the data set with frozen buccal tissue (setting [6]) is given as 2. Also, the “Octreotide Compatibility” value in data set [1] (setting [7]) was “Yes”.
For `CCCCCCCCCCCCOC(=O)C[N+](C)(C)C` [Glycine Betaine Ester C12], in the data set with frozen buccal tissue, the Average flux is reported as 3.14 ug/cm2*min and the flux is reported as 3-3.5 μg/cm^2*min. Moreover, where the note is “biological media (plasma, esterase solution, simulated intestinal fluid, tissue homogenate), 37 degrees C.”, the “biodegradability, quantified by analysis of glycine betaine” value is on record as “highly biodegradable”. Besides, for the setting “simulated gastric fluid (pepsin/low pH)”, the “degradability in acidic environment” value was “not degradable”.
`CCCCCCCCCCCCCCCCOC(=O)C[N+](C)(C)C` [Glycine Betaine Ester C16]: in the data set with frozen buccal tissue, the Average flux stood at 0.69 ug/cm2*min and the flux is 3-3.5 μg/cm^2*min.
As for `CCCCCCCC/C=C\CCCCCCCCOC(=O)C[N+](C)(C)C` [Glycine Betaine Ester C18 (Oleyl)], in the data set on frozen buccal tissue, the Average flux stood at 0.51 ug/cm2*min and the flux is recorded as 3-3.5 μg/cm^2*min.
With `CCCCCCCCCCCCCCCC[N+](C)(C)C.[Br-]` [Hexadecyltrimethylammonium bromide], the permeation activity entry in the data set on frozen buccal tissue is on record as “most active”. Besides, the “Permeation Ranking 0-1-2-3 None-Low-Med-High” value in the data set on frozen buccal tissue (pig) is 3. In addition, the Average flux in the data set with frozen buccal tissue (pig, 1 Wt %) came out at 1.23 ug/cm2*min. The “compatibility with octreotide in terms of solubility without causing precipitation” value in data set [1] is recorded as “improved compatibility”.
Turning to `CCCCCC[N+](C)(C)C.[Br-]` [Hexyltrimethylammonium bromide], the permeation activity entry in the data set with frozen buccal tissue is listed as “not active”.
Turning to `CCCCCCCCCCCCCCCCOP(=O)([O-])OCC[N+](C)(C)C` [Miltefosine (Hexadecyl Phosphatidyl Choline), reference compound], the Average flux in the data set with frozen buccal tissue is recorded as 0.14 ug/cm2*min.
For the compound `C[C@@H](O)[C@@H]1NC(=O)[C@H](CCCCN)NC(=O)[C@@H](Cc2c[nH]c3ccccc23)NC(=O)[C@H](Cc2ccccc2)NC(=O)[C@@H](NC(=O)[C@H](N)Cc2ccccc2)CSSC[C@@H](C(=O)N[C@H](CO)[C@@H](C)O)NC1=O` [Octreotide], the fraction remaining at 4 h, 1 mg/ml in data set [2] (+ Tissue with microneedle (10 times)) was determined as 98%; in data set [2] (buccal tissue incubated with octreotide solution, + Tissue), 86%; in data set [2] (control without tissue, control, octreotide solution 2 ml, 1 mg/ml), 100%. Further, the flux entry in the data set on frozen buccal tissue (octreotide concentration of 5 mg/ml (FIG. 4)) was “approximately 0.500 ug/cm2*min”; with frozen buccal tissue (octreotide concentration of 15-20 mg/ml (FIG. 4)), 2.0-2.5 ug/cm2*min. Besides, the “octreotide permeated through the tissue” value in the data set on buccal tissue is about 60 µg.
For the compound `CCCCCCCCN1CCCC1=O` [Octyl pyrroldone], in the data set on frozen buccal tissue, the Average flux is on record as 0.10 ug/cm2*min.
As for `CCCCCCCC[N+](C)(C)C.[Br-]` [Octyltrimethylammonium bromide], in the data set with frozen buccal tissue, the permeation activity entry was “not active”.
Turning to `CCCCCCCC/C=C\CCCCCCCC(=O)O` [Oleic acid], the “Permeation Ranking 0-1-2-3 None-Low-Med-High” value in the data set on frozen buccal tissue (pig) is 0. The Average flux in the data set on frozen buccal tissue (pig, 5 Wt %) is recorded as 0.01 ug/cm2*min.
In the case of `Cl.NCCCNCCCCNCCCN` [Spermine HCl], the Average flux in the data set with frozen buccal tissue (pig, 10 Wt %) is on record as 0.58 ug/cm2*min.
Consider `CCCCCCCCCCCCCCO[C@@H]1O[C@H](CO)[C@@H](O[C@H]2O[C@H](CO)[C@@H](O)[C@H](O)[C@H]2O)[C@H](O)[C@H]1O` [TDM], for which, in the data set with frozen buccal tissue, the “Permeation Ranking 0-1-2-3 None-Low-Med-High” value stood at 1.
As for `CCCCCCCCCCCCCCCC[N+](C)(C)C.[Br-]` [drawing 5], the “Avg Flux” value in the data set with frozen buccal tissue (pig, 1 wt %) is listed as 1.31 (1 wt %) μg/cm^2*min.
For the compound `C[C@@H](O)[C@@H]1NC(=O)[C@H](CCCCN)NC(=O)[C@@H](Cc2c[nH]c3ccccc23)NC(=O)[C@H](Cc2ccccc2)NC(=O)[C@@H](NC(=O)[C@H](N)Cc2ccccc2)CSSC[C@@H](C(=O)N[C@H](CO)[C@@H](C)O)NC1=O` [octreotide acetate], in data set [3], the AUC is 14.8 ng·h/mL, the Cmax was found to be 31 ng/mL and the Tmax was 4 min. In addition, in data set [4] (setting [8]), the Tmax came out at 3 h, the AUC is 19.8 ng·h/mL, the highest concentration (Cmax) worked out at 4.2 ng/mL and the bioavailability was 1.11%. In addition, in data set [4] (setting [9]), the AUC amounted to 106 ng·h/mL, the concentration peaked (Cmax) at 25.6 ng/mL and the bioavailability worked out at 5.97%.
With “Benzalkonium chloride [Benzalkonium chloride (BAC)]”, the “Permeation Ranking 0-1-2-3 None-Low-Med-High” value in the data set on frozen buccal tissue came to 3.
For the compound Dimethyl-cyclodextrin, in the data set with frozen buccal tissue, the Average flux amounted to 0.53 ug/cm2*min and the “Permeation Ranking 0-1-2-3 None-Low-Med-High” value is 1.
Consider Hydroxypropylcyclodextrin, for which the Average flux with frozen buccal tissue was 0.15 ug/cm2*min.
As to Sodium Deoxycholate [DOC], the Average flux in the data set with frozen buccal tissue (setting [5]) was 0.49 ug/cm2*min and 0.41 ug/cm2*min. The “Permeation Ranking 0-1-2-3 None-Low-Med-High” value in the data set on frozen buccal tissue (setting [6]) is on record as 1. The “Octreotide Compatibility” value in data set [1] (setting [7]) was “Yes”.
